Experimental data as given in patent publication US5593678A, “Protection of teleost fish” (University of Georgia Research Foundation, priority 1994, dated 1997).
“Also recorded” adds a separate entry of the source. Like-named read-outs stand apart in the source and are kept apart here.

How the values were obtained:
[1] = tested on: NCC (lysis of IM-9 target cells); assay: Costimulation assay: NCC cytotoxicity (51Cr release) with A23187 or mab 5C6; type: cell-based, channel catfish (Ictalurus punctatus); conditions: for Percentage specific release: E:T 40:1, 10^-4 M A23187, 60 μM H7 and HA1004, 0.5 μg/ml genistein, 1:3 dilution of tissue culture supernatant, media control 20.6; for activity at 0.5 µg/mL: Ictalurus punctatus, IM-9, 2 h; for influence of pretreatment on A23187 activation: pretreatment prior to A23187
Protocol: Incubation was two hours and cells were either washed or not washed before addition to ^51 Cr-labeled IM-9 target cells (4- to 6-hour cytotoxicity assays).
To further investigate this inhibitory effect, a costimulus experiment was done using a calcium ionophore, e.g., A23187, combined with the various inhibitors and activators of NCC activity. Pretreatment of NCC with A23187 produced an almost identical increase in cytotoxicity regardless of the identity of the first treatment.
In a second costimulus experiment mab 5C6 was used (instead of A23187) to activate cytotoxicity (Table 6).

NCC = conditions: cited from earlier work
[2] = tested on: protein tyrosine kinase (PTK); conditions: NK cells; cited from earlier work
[3] = tested on: serine/threonine phosphorylation; conditions: NK cells; cited from earlier work
[4] = tested on: NCC (lysis of IM-9 target cells); assay: NCC cytotoxicity (51Cr release) after treatment with protein kinase inhibitors; type: cell-based, channel catfish (Ictalurus punctatus); conditions: for inhibition at 30 µM / inhibition at 60 µM: E:T 80:1
Protocol: To prepare NCC, fish were lightly anesthetized with ethyl m-aminobenzoate (Sigma Chemical Co.) in water and sacrificed.
IM-9 target cells were used in cytotoxicity assays. […] Cells were grown in stationary suspension cultures and were maintained at approximately 1×10^6 cells/ml. […]

[5] = tested on: NCC membrane proteins (tyrosine phosphorylation); assay: Tyrosine phosphorylation of NCC membrane proteins following mab 5C6 activation (Western blot); type: cell-based, channel catfish (Ictalurus punctatus); conditions: NCC pretreated two hours with inhibitor; 100 μg/ml genistein or 30 μM HA1004
Protocol: FIG. 1. Tyrosine phosphorylation of NCC membrane proteins following activation by mab 5C6. NCC were resuspended at 500×10^6 /ml and 200 μl aliquots were incubated at 37° C. with either 125 μl ammonium sulfate precipitate mab 5C6 (left panel) or an isotype control (right panel). At the indicated timed intervals, the reactions were terminated by addition of 325 μl of 2×lysis buffer. Lysates were immunoprecipitated with mab 4G10, electrophoresed on 11% SDS-PAGE, blotted onto nitrocellulose, and probed with mab 4G10. Molecular weight markers are indicated by the arrows.
FIG. 2. Tyrosine phosphorylation of Percoll-enriched NCC. Fish NCC were centrifuged for 15 minutes at 500 g on a 45.5% Percoll cushion. The cells at the interphase were harvested, washed, and treated with mab 5C6 for 0 and 20 sec before addition of 2×lysis buffer. Lysates were electrophoresed, blotted on nitrocellulose, and probed with mab 4G10.
FIG. 3. Effects of genistein on tyrosine phosphorylation in fish NCC. Fish NCC were incubated with media, genistein (100 μg/ml), or HA1004 (30 μM) for two hours prior to activation for zero time with mab 5C6 (left lane) and 40 sec with either mab 5C6 (middle lane) or an irrelevant IgM isotype control (right lane). Reactions were stopped by addition of lysis buffer and lysates were processed as explained in the legends to FIGS. 1 and 2. […]

human NK cells = conditions: same concentration of H-7; cited from earlier work
[6] = tested on: cyclic nucleotide dependent kinases; conditions: cited from earlier work

**Q.** For CNc1ccc2oc(C[C@H]3O[C@@]4(CC[C@H]3C)O[C@H]([C@H](C)C(=O)c3ccc[nH]3)[C@H](C)C[C@H]4C)nc2c1C(=O)O [A23187], which Percentage specific release [1] is on record?
**A.** The Percentage specific release was 81.0%.

**Q.** And the “activation of NCC cytotoxicity” value ([1]; Table 5)?
**A.** The value was “strong activation of NCC cytotoxicity”.

**Q.** And the “ability to overcome kinase inhibitor inhibition of NCC cytotoxicity” value ([1]; after H-7 or genistein)?
**A.** The value was “able to overcome the inhibition produced by treatment of NCC with H-7 or genistein”.

**Q.** And the “cytotoxicity of NCC (words, prior work)” value (NCC)?
**A.** The value was “activated NCC cytotoxicity and increased "receptor" expression”.

**Q.** Which results are given for O=c1c(-c2ccc(O)cc2)coc2cc(O)cc(O)c12 [Genistein, genistein]?
**A.** Percentage specific release [1]: 11.0%; activity at 0.5 µg/mL ([1]; 4 × 10^6 NCC/ml, mabs 1:50 dilution, H-7, HA1004 60 μM, genistein 0.5 μg/ml, read-out: Percentage of control (E:T ratio) 40%): 38.9%; activity at 0.5 µg/mL ([1]; mabs 1:50 dilution, H-7, HA1004 60 μM, genistein 0.5 μg/ml, read-out: Percentage of control (E:T ratio) 20%): 35.5%; influence of pretreatment on A23187 activation [1]: did not produce any reductions in A23187 activation; also recorded: did not appear to be additive and did not influence the final level of activation; PTK activity [2]: inhibit PTK activity; serine/threonine phosphorylation [3]: no effect on serine/threonine phosphorylation; inhibition of NCC cytotoxicity [4]: almost completely inhibited NCC activity in a dose-dependent fashion; inhibition at 142 µg/mL ([4]; Ictalurus punctatus, IM-9, 142 μg/ml, read-out: inhibition of cytotoxicity): ~100%; inhibition at 14.2 µg/mL ([4]; Ictalurus punctatus, 14.2 μg/ml, E:T 20:1, 6 hours, read-out: Percentage inhibition (NCC lysis of IM-9)): 55.5%; inhibition at 28.4 µg/mL ([4]; Ictalurus punctatus, 28.4 μg/ml, E:T 20:1, 6 hours, read-out: Percentage inhibition (NCC lysis of IM-9)): 75.9%; inhibition at 57 µg/mL ([4]; Ictalurus punctatus, 57.0 μg/ml, E:T 20:1, 6 hours, read-out: Percentage inhibition (NCC lysis of IM-9)): 64.9%; inhibition at 142 µg/mL ([4]; Ictalurus punctatus, 142.0 μg/ml, E:T 20:1, 6 hours, read-out: Percentage inhibition (NCC lysis of IM-9)): 94%; inhibition of cytotoxicity ([4]; between approximately 14 and approximately 57 μg/ml): greater than 50%; specific protein phosphorylation after mab 5C6 [5]: Specific protein phosphorylation was not observed

**Q.** With CC1CNCCN1S(=O)(=O)c1cccc2cnccc12.Cl.Cl (stereo not shown) [H-7, 1-(5-isoquinolinesulfonyl)-2-methylpiperazine di-HCl] as the molecule, how does the “Percentage of control (E:T ratio) 40%” value ([1]; 4 × 10^6 NCC/ml, mabs 1:50 dilution, H-7, HA1004 60 μM, genistein 0.5 μg/ml, 120 min) read?
**A.** Its value is 37.5%.

**Q.** What about the Percentage specific release [1] of the same molecule?
**A.** Its Percentage specific release is 9.1%.

**Q.** What about the “Percentage of control (E:T ratio) 20%” value ([1]; mabs 1:50 dilution, H-7, HA1004 60 μM, genistein 0.5 μg/ml, 120 min) of the same molecule?
**A.** Its value is 53.9%.

**Q.** What about the “influence of pretreatment on A23187 activation” value ([1]; di-HCl) of the same molecule?
**A.** The value was “did not produce any reductions in A23187 activation; also recorded: did not appear to be additive and did not influence the final level of activation”.

**Q.** What about the “inhibition of human NK cells” value (human NK cells) of the same molecule?
**A.** Its value is 60-90%.

**Q.** What about the “inhibition of cyclic nucleotide dependent kinases” value [6] of the same molecule?
**A.** Its value is “to a lesser extent it inhibits cyclic nucleotide kinases”.

**Q.** And the inhibition at 30 µM ([4]; Ictalurus punctatus, 1 h, read-out: Percentage inhibition (NCC lysis of IM-9), 30 μM, 60 min)?
**A.** The inhibition at 30 µM was 12.5%.

**Q.** What about the inhibition at 60 µM ([4]; Ictalurus punctatus, 1 h, read-out: Percentage inhibition (NCC lysis of IM-9), 60 μM, 60 min) of the same molecule?
**A.** Its inhibition at 60 µM is 10.2%.

**Q.** What about the inhibition at 30 µM ([4]; Ictalurus punctatus, 2 h, read-out: Percentage inhibition (NCC lysis of IM-9), 30 μM, 120 min) of the same molecule?
**A.** Its inhibition at 30 µM is 31%.

**Q.** What about the inhibition at 60 µM ([4]; Ictalurus punctatus, 2 h, read-out: Percentage inhibition (NCC lysis of IM-9), 60 μM, 120 min) of the same molecule?
**A.** Its inhibition at 60 µM is 12.6%.

**Q.** And the inhibition at 30 µM ([4]; Ictalurus punctatus, 3 h, read-out: Percentage inhibition (NCC lysis of IM-9), 30 μM, 180 min/wash)?
**A.** Its inhibition at 30 µM is 34.2%.

**Q.** What about the inhibition at 30 µM ([4]; Ictalurus punctatus, 3 h, read-out: Percentage inhibition (NCC lysis of IM-9), 30 μM, 180 min) of the same molecule?
**A.** Its inhibition at 30 µM is 37.8%.

**Q.** And the inhibition at 60 µM ([4]; Ictalurus punctatus, 3 h, read-out: Percentage inhibition (NCC lysis of IM-9), 60 μM, 180 min/wash)?
**A.** Its inhibition at 60 µM is 34.5%.

**Q.** And the inhibition at 60 µM ([4]; Ictalurus punctatus, 3 h, read-out: Percentage inhibition (NCC lysis of IM-9), 60 μM, 180 min)?
**A.** Its inhibition at 60 µM is 35.7%.

**Q.** And the “level of inhibition of NCC activity” value ([4]; summary of Table 1)?
**A.** Its value is “approximately 35%”.

**Q.** What about the “effect of removal (washing) of inhibitor on cytotoxicity” value ([4]; washed prior to addition of target cells) of the same molecule?
**A.** The value was “did not substantially affect the cytotoxicity”.
